In ChEMBL document CHEMBL1152560, “Substituted 2-arylbenzothiazoles as kinase inhibitors: hit-to-lead optimization” (Bioorg Med Chem, 2009):

Key:
[1] = target: Protein kinase C eta type (Homo sapiens) (UniProt P24723); assay: Residual activity of PKCeta at 1 uM by microplate scintillation counting
[2] = target: T1, Protein kinase C zeta type (Homo sapiens) (UniProt Q05513); assay: Residual activity of PKCzeta at 1 uM by microplate scintillation counting
T1 sequence (whole entry): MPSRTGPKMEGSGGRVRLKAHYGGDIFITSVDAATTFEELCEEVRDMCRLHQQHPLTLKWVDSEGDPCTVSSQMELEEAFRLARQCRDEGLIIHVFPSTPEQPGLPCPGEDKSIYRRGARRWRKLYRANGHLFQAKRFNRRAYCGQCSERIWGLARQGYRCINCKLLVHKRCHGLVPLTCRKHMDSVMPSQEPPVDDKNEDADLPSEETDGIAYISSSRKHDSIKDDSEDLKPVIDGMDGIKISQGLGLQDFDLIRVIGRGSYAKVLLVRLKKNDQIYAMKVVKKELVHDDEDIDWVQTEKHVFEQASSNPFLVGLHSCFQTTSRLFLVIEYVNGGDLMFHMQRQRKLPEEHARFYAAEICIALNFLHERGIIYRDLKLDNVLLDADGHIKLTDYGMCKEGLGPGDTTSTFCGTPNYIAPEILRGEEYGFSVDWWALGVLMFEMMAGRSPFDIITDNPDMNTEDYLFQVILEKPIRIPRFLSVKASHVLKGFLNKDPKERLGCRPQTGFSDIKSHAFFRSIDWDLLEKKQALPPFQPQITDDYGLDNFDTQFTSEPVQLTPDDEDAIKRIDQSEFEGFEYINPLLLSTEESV

[3] = target: Vascular endothelial growth factor receptor 1 (Homo sapiens) (UniProt P17948); assay: Residual activity of VEGFR1 at 10 uM by microplate scintillation counting
[4] = target: T2, Serine/threonine-protein kinase TBK1 (Homo sapiens) (UniProt Q9UHD2); assay: Residual activity of TBK1 at 0.1 uM by microplate scintillation counting
T2 sequence (whole entry): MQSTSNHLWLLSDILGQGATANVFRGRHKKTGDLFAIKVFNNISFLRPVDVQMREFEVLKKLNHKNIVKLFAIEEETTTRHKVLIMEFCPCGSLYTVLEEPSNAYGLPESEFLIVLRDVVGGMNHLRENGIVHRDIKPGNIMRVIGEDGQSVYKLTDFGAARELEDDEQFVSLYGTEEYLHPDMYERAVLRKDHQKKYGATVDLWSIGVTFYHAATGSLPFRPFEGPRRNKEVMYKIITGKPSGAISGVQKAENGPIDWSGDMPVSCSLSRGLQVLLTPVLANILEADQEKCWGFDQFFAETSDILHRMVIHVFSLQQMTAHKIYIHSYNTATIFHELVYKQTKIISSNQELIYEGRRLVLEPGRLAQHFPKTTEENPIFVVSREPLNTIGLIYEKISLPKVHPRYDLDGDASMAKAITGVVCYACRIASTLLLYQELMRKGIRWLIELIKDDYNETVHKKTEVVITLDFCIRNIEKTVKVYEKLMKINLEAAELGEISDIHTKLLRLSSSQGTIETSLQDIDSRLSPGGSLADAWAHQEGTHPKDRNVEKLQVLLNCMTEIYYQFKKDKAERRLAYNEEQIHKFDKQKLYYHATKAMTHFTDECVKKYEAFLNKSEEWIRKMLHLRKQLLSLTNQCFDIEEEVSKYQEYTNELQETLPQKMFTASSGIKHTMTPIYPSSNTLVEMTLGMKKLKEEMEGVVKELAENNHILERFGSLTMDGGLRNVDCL

[5] = target: Serine/threonine-protein kinase Nek6 (Homo sapiens) (UniProt Q9HC98); assay: Residual activity of NEK6 at 1 uM by microplate scintillation counting
[6] = target: T3, Serine/threonine-protein kinase TAO2 (Homo sapiens) (UniProt Q9UL54); assay: Residual activity of TAOK2 at 1 uM by microplate scintillation counting
T3 sequence (whole entry): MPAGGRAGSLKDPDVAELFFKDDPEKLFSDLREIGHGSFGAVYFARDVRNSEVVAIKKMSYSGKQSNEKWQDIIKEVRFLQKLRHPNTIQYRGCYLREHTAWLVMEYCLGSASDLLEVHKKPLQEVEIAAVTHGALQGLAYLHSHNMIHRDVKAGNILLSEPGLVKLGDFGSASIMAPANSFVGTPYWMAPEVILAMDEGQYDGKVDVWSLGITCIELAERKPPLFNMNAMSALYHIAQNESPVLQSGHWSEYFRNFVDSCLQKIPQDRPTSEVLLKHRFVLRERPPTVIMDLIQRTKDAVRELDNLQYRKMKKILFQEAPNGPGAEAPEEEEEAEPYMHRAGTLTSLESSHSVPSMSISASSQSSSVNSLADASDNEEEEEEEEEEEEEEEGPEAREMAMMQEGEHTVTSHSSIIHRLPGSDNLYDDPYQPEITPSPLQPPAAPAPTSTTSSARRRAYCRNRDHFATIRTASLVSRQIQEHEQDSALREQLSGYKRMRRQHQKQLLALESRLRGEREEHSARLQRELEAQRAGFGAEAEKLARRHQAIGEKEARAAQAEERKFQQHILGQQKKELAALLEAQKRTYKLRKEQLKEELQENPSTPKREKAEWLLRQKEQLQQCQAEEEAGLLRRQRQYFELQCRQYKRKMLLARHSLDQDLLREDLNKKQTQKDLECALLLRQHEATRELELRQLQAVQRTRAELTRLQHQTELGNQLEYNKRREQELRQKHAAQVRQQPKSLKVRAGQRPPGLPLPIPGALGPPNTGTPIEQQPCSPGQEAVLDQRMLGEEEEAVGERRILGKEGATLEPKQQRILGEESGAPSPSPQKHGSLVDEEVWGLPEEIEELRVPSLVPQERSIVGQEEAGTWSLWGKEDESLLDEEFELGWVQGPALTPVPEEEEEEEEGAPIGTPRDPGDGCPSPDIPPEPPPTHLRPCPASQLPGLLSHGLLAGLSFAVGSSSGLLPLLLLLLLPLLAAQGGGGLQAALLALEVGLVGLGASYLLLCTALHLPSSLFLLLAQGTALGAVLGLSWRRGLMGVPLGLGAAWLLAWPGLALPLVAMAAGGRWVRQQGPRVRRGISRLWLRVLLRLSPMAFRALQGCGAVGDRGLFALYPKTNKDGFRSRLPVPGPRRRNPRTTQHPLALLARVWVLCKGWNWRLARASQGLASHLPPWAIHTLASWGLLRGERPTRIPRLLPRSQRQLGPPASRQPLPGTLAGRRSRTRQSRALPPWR

[7] = target: Tyrosine-protein kinase Fgr (Homo sapiens) (UniProt P09769); assay: Residual activity of FGR at 10 uM by microplate scintillation counting
Tyrosine-protein kinase Fgr (Homo sapiens), sequence (P09769 2-529 limits assumed): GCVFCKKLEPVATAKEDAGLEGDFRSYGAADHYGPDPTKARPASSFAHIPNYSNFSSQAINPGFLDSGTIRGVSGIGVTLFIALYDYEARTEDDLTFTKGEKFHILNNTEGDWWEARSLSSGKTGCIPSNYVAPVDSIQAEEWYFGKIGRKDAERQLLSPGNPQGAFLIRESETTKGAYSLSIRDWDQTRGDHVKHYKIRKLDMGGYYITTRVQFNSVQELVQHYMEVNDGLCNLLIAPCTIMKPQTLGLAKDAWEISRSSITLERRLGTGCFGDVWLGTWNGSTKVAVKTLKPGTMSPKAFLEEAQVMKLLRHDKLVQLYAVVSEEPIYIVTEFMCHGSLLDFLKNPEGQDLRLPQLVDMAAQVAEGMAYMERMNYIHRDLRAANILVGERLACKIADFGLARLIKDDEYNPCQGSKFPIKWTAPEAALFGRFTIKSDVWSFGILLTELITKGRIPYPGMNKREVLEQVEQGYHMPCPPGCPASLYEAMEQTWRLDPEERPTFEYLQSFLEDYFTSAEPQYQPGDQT

Protein kinase C eta type (Homo sapiens), sequence (P24723 whole entry): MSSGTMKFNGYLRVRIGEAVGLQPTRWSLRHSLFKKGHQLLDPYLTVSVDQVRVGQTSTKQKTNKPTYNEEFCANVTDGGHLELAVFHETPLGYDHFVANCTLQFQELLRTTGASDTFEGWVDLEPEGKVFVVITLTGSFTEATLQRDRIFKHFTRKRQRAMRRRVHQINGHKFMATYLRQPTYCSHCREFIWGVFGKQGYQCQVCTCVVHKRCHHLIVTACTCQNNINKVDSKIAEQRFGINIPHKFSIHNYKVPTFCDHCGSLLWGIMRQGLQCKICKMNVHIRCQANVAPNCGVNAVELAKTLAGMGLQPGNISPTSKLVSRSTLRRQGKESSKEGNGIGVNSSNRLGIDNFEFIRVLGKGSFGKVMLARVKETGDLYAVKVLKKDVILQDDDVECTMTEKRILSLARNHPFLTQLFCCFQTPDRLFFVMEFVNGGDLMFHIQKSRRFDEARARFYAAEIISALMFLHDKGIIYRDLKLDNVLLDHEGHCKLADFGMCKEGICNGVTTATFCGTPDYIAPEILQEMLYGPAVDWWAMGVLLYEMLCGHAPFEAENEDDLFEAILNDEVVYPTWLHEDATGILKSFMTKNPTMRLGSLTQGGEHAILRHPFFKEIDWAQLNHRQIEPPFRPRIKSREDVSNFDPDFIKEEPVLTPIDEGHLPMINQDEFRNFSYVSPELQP
Vascular endothelial growth factor receptor 1 (Homo sapiens), sequence (P17948 whole entry): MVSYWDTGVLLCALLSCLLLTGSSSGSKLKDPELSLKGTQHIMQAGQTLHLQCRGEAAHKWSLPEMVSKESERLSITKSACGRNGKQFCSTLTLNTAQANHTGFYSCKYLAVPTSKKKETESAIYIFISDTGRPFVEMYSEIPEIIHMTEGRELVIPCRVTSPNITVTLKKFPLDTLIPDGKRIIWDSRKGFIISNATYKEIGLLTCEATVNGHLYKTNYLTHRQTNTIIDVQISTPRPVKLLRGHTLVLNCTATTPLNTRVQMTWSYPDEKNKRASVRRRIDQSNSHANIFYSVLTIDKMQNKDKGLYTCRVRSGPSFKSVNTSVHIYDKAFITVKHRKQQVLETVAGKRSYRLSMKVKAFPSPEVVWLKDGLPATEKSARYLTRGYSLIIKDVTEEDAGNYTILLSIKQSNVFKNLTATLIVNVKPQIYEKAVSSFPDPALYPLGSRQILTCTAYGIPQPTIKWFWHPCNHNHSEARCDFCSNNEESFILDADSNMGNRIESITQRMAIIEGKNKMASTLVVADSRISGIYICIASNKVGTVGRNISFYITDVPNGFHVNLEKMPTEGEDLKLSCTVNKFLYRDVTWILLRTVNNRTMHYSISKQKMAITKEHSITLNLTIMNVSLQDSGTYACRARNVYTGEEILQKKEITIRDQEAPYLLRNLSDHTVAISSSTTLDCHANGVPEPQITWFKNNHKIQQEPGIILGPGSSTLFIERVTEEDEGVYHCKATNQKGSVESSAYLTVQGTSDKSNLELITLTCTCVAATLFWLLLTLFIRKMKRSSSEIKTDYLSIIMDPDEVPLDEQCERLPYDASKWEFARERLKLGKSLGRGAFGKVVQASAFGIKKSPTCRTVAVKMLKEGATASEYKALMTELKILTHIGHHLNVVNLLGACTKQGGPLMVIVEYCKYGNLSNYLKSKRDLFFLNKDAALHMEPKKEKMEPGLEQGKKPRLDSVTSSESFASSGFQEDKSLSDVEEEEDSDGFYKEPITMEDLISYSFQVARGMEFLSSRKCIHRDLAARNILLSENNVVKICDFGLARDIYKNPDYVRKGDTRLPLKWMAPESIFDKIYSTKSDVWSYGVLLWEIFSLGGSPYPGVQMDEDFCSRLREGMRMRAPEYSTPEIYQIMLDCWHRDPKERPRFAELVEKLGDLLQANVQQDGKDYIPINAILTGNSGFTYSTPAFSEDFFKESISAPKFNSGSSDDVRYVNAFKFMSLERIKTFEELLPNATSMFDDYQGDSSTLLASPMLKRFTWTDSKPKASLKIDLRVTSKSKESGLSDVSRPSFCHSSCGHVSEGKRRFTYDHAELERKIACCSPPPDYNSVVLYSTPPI
Serine/threonine-protein kinase Nek6 (Homo sapiens), sequence (Q9HC98 whole entry): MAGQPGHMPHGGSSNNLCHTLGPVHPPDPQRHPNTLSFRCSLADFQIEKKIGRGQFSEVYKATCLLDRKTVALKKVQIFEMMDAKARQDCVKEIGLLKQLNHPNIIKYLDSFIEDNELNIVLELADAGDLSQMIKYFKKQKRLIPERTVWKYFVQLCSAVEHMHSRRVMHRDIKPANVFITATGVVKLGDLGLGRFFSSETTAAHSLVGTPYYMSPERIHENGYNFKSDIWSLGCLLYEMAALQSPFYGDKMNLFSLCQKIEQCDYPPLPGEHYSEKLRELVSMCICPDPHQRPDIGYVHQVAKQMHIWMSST

residual activity [1]	residual activity [2]	residual activity [3]	residual activity [4]	residual activity [5]	residual activity [6]	residual activity [7]	SMILES
122%	109%	28%	94%	84%	99%	90%	COc1cc2c(Oc3ccc(-c4nc5ccccc5s4)cc3)ncnc2cc1OCCCN1CCCC1
97%	107%	14%	94%	102%	101%	24%	COc1cc2c(Oc3ccc(-c4nc5ccccc5s4)cc3F)ncnc2cc1OCCCN1CCN(C)CC1
92%	92%	35%	79%	96%	97%	82%	COc1cc2c(Oc3ccc(-c4nc5ccccc5s4)cc3)ncnc2cc1OCCCN1CCN(C)CC1
